Experimental data taken from patent publication EP0545103A1, “Insecticidal, acaricidal and molluscicidal 1-(substituted) thioalkylpyrroles” (priority 1991, dated 1993).

Columns and labels:
Assay type in all cases: in vivo
Set-up in all cases: key: 0: no effect; 10-25% kill; 26-35% kill; 36-45% kill; 46-55% kill; 56-65% kill; 66-75% kill; 76-85% kill; 86-99% kill; 9: 100% kill
[1] = test system: Heliothis virescens, egg, tobacco budworm; assay: Tobacco budworm egg test, dipped cotton leaf and eggs; details: mortality rating after 3 days
Protocol: (§1) Test solutions are prepared by dissolving the test compound in a 35% acetone in water mixture to give a concentration of 10,000 ppm. Subsequent dilutions are made with water as needed.
Heliothis virescens, egg, tobacco budworm
A young cotton leaf about 6-7cm in length is dipped in an agitated test suspension for about 3 seconds. Eggs are collected on a cheesecloth and the cloth is cut into 10-20mm squares, each containing approximately 50-100 eggs which are 6-30 hours old. The egg-containing cheesecloth square is similarly dipped in a test suspension and placed on a treated cotton leaf. The combination is dried in a hood and then placed in an 8 ounce Dixie® cup #2168-ST (240ml volume, 6cm tall, 9.5cm top diameter, 8.0cm bottom diameter) into which a 5cm length of damp dental wick has been placed. The cup is covered with a clear plastic lid and held for 3 days, after which mortality counts are made.
(§2) All of the above tests are rated according to the rating scale shown below.

[2] = test system: Spodoptera eridania, 3rd instar larvae, southern armyworm; assay: Southern armyworm 7-day residual test; details: R designates Residual: 7-day residual foliage, concentration not given; for ARMYWORM Day 3 R: rating at 3 days; for ARMYWORM Day 5 R: rating at 5 days
Protocol: as §1
Spodoptera eridania, 3rd instar larvae, southern armyworm, 7-day residual
The limabean leaves treated in the above test are maintained under high intensity lamps in the greenhouse for 7 days. These lamps duplicate the effects of a bright sunny day in June in New Jersey and are kept on for 14 hour day length. After 7 days, the foliage is sampled and assayed as in the above-said test.
as §2

[3] = test system: Heliothis virescens, 3rd instar tobacco budworm; assay: Tobacco budworm 3rd instar test, dipped cotton cotyledons; details: mortality rating after 3 days
Protocol: as §1
Heliothis virescens, 3rd instar tobacco budworm
Cotton cotyledons are dipped in the test solution and allowed to dry in a hood. When dry, each is cut into quarters and ten sections are placed individually in 30 mL plastic medicine cups containing a 5-7mm long piece of damp dental wick. One 3rd instar caterpillar is added to each cup and the cup is sealed with MYLAR® film. Treatments are maintained for 3 days before a mortality count and observation of reduction in feeding damage are made.
as §2

[4] = test system: Diabrotic undecimpunctata howardi, 3rd instar southern corn rootworm; assay: Southern corn rootworm soil test; details: mortality rating after 6 days
Protocol: Diabrotic undecimpunctata howardi, 3rd instar southern corn rootworm
One cc of fine talc is placed in a 30 mL wide-mouth screw-top glass jar. One mL of the appropriate acetone test solution is pipetted onto the talc so as to provide 1.25 and 0.25 mg of active ingredient per jar. The jars are set under a gentle air flow until the acetone is evaporated. The dried talc is loosened, 1 cc of millet seed is added to serve as food for the insects and 25 mL of moist soil is added to each jar. The jar is capped and the contents thoroughly mixed on a Vortex Mixer. Following this, ten 3rd instar rootworms are added to each jar and the jars are loosely capped to allow air exchange for the larvae. The treatments are held for 6 days when mortality counts are made. Missing larvae are presumed dead, since they decompose rapidly and can not be found. The concentrations used in this test correspond approximately to 50 and 10 kg/ha, respectively.
as §2

[5] = test system: Spodoptera eridania, 3rd instar larvae, southern armyworm; assay: Southern armyworm 3rd instar test, dipped limabean leaf; details: for ARMYWORM Day 3: rating at 3 days; for ARMYWORM Day 5: rating at 5 days
Protocol: as §1
Spodoptera eridania, 3rd instar larvae, southern armyworm
A Sieva limabean leaf expanded to 7-8 cm in length is dipped in the test solution with agitation for 3 seconds and allowed to dry in a hood. The leaf is then placed in a 100 x 10 mm petri dish containing a damp filterpaper on the bottom and ten 3rd instar caterpillars. At 3 and 5 days, observations are made of mortality, reduced feeding, or any interference with normal molting.
as §2

[6] = test system: Spodoptera eridania, 3rd instar larvae, southern armyworm; assay: Southern armyworm systemic uptake (stem systemic) test; details: cut stem in emulsion 3 days
Excerpt: Spodoptera eridania, systemic uptake, 3rd instar larvae, southern armyworm
Subsequent 10-fold dilutions are made with water as needed. Sieva limabean plants, with the primary leaves expanded to a length of 7-8 cm, are cut off at least 3 cm above the soil level to avoid contamination with soil bacteria which will cause decay of the stem during the test. The cut stem is placed in the test emulsion and wrapped with a bit of cotton to hold the stem off the bottom of the bottle and to limit evaporation. The treated stem is thus maintained for 3 days at 27° C to allow the test compound to be taken up into the plant. Following this, one leaf is removed from the plant and placed in a 100 x 10 mm petri dish with 10 southern armyworms as described above. Mortality counts and observations of feeding damage are made 3 and 5 days later.
as §2

Structure (SMILES) | TOBACCO BUDWORM Egg ([1]; 100 ppm) | TOBACCO BUDWORM Egg ([1]; 300 ppm) | TOBACCO BUDWORM Egg ([1]; 1000 ppm) | ARMYWORM Day 3 R [2] | TOBACCO BUDWORM 3rd Instar ([3]; 10 ppm) | TOBACCO BUDWORM 3rd Instar ([3]; 100 ppm) | TOBACCO BUDWORM 3rd Instar ([3]; 1000 ppm) | SOUTHERN CORN ROOTWORM ([4]; 50 (ppm as headed)) | ARMYWORM Day 3 ([5]; 10 ppm) | ARMYWORM Day 5 ([5]; 10 ppm) | ARMYWORM Day 3 ([5]; 100 ppm) | ARMYWORM Day 5 ([5]; 100 ppm) | ARMYWORM Day 3 ([5]; 1000 ppm) | ARMYWORM Day 5 ([5]; 1000 ppm) | ARMYWORM Stem Sys [6] | ARMYWORM Day 5 R [2] | SOUTHERN CORN ROOTWORM ([4]; 1 (ppm as headed)) | SOUTHERN CORN ROOTWORM ([4]; 10 (ppm as headed))
N#Cc1c(Br)c(Br)n(CSC(=N)N)c1Br [Example 20] | 0 | 0 | 0 | 6 (66-75% kill) | 0 | 0 | 9 (100% kill) | 0 | 0 | 0 | 9 (100% kill) | 9 (100% kill) | 9 (100% kill) | 9 (100% kill) | – | – | – | –
CSCn1c(Br)c(Br)c(C#N)c1SC [Example 43] | – | – | 0 | – | – | – | 0 | 0 | 0 | 0 | 0 | 0 | 9 (100% kill) | 9 (100% kill) | 0 | – | – | –
N#Cc1c(Br)c(C(F)(F)F)n(CS(=O)(=O)c2ccccc2)c1-c1ccc(Cl)cc1 [Example 46] | – | – | 0 | 4 (46-55% kill) | – | – | – | 8 (86-99% kill) | 0 | 0 | 0 | 0 | 9 (100% kill) | 9 (100% kill) | 0 | 9 (100% kill) | 0 | 0
CCN(CC)C(=S)SCn1c(-c2ccc(Cl)cc2)c(C#N)c(Br)c1C(F)(F)F [Example 26] | – | – | 0 | 9 (100% kill) | 9 (100% kill) | 9 (100% kill) | 9 (100% kill) | – | 9 (100% kill) | 9 (100% kill) | 9 (100% kill) | 9 (100% kill) | 9 (100% kill) | 9 (100% kill) | 0 | 9 (100% kill) | 0 | –
CN(C)C(=S)SCn1c(Br)c(Br)c(C#N)c1Br [Example 31] | – | – | 0 | 9 (100% kill) | – | – | 6 (66-75% kill) | 0 | 0 | 0 | 9 (100% kill) | 9 (100% kill) | 9 (100% kill) | 9 (100% kill) | 0 | 9 (100% kill) | – | –
N#Cc1c(Br)c(C(F)(F)F)n(CSc2nc3ccccc3o2)c1-c1ccc(Cl)cc1 [Example 6] | – | – | 0 | 9 (100% kill) | 0 | – | – | – | 0 | – | 9 (100% kill) | – | 9 (100% kill) | – | 0 | 9 (100% kill) | 0 | –
N#Cc1c(Br)c(C(F)(F)F)n(CSc2nc3ccccc3[nH]2)c1-c1ccc(Cl)cc1 [Example 9] | – | – | 0 | 9 (100% kill) | – | 0 | 0 | 0 | – | – | 0 | 0 | 6 (66-75% kill) | 7 (76-85% kill) | 0 | 9 (100% kill) | – | –
CN(C)C(=S)SCn1c(Cl)c(Cl)c(C#N)c1-c1ccc(Cl)c(Cl)c1 [Example 32] | – | – | 0 | 0 | – | 0 | 0 | 0 | 0 | 0 | – | – | – | – | 0 | 0 | – | –
CC(C)OP(=S)(OC(C)C)SCn1c(-c2ccc(Cl)cc2)c(C#N)c(Br)c1C(F)(F)F [Example 27] | – | – | 0 | 9 (100% kill) | 0 | 7 (76-85% kill) | 9 (100% kill) | 9 (100% kill) | 0 | 0 | 9 (100% kill) | 9 (100% kill) | 9 (100% kill) | 9 (100% kill) | 0 | 9 (100% kill) | 6 (66-75% kill) | 7 (76-85% kill)
